Test results reported in US20240067604A1, “COMBINATIONS OF IRS/STAT3 DUAL MODULATORS AND ANTI PD-1/PD-L1 ANTIBODIES FOR TREATING CANCER” (TYRNOVO LTD., priority 2017, published 2024).

Test system: esophagogastric junction adenocarcinoma patient-derived xenograft (PDX)
Assay: Patient-derived xenograft (PDX) of esophagogastric junction adenocarcinoma in NodScid mice supplemented with PBMCs from the same patient (double autologous)
Assay type: in vivo, NodScid mice (human tumor and PBMCs)
Details: PDX SC in NodScid mice + patient PBMCs; Compound 4 70 mg/kg IV and/or Keytruda 6 mg/kg IP on days 0, 5 and 11; treatment started at ~160 mm^3; sacrificed on day 18
Source text: Patient-derived xenograft (PDX) of esophagogastric junction adenocarcinoma biopsy subcutaneous (SC) implanted into NodScid mice. At the first day of treatment peripheral blood mononuclear cells (PBMCs) from the same patient were intravenous injected to the mice (double autologous).
Fresh human primary esophagogastric junction adenocarcinoma biopsy was subcutaneously (SC) implanted into NSG mice (P0).
Subcutaneous implantation of human primary tumor biopsy into NodScid mice.
The tumor (P3) was extracted from the mice, measured, cut into small pieces of 1-2 mm and transferred into the gentleMACS Tube containing the sterile saline. […] Animals were observed and monitored for any discomfort and immobility day by day.
Isolation of human PBMCs: Human PBMCs were isolated from heparinized venous blood samples of the same esophagus adenocarcinoma patient by density gradient centrifugation method using Ficol Histopaque (Sigma). […] The total cell number and the number of viable cells were evaluated. […] On the day of injection, the cells were thawed, washed twice in order to dilute possible DMSO residues by the addition of PBS and centrifugation (600 g for 10 minutes, RT) and viable cells were counted. […]
The length (l) and the width (w) of the tumors were measured 4-5 times a week and the volumes of the tumors were calculated as follows: v=lw^2/2. […]

Oc1cc(CNC(=S)/C=C/c2ccc(O)c(O)c2Br)cc(O)c1O [Compound 4]
Tumor response / tumor progression (tumor volume, FIG. 1): no response
